These results are taken from PMC5291759 (Bioorganic & medicinal chemistry, 2016).

The subject of series [1] is Lmna^H222P/H222P mice. The note with it: cited from earlier work.
The next series deals with ERK1/2 phosphorylation. As to the kind of experiment: Phosphorylated ERK1/2 relative to total ERK1/2 in tissues of treated mice. The note with it: six weeks. It is filed as in vivo, Lmna^H222P/H222P mice.
Series [2] deals with Lmna^H222P/H222P mice. As to the kind of experiment: Forelimb grip fatigue index. The note with it: 6 mg/kg/day. It is filed as in vivo.
For series [3], the system named is Lmna^H222P/H222P mice. Format: in vivo. The note with it: 6 weeks.
The test system of series [4] is Lmna^H222P/H222P mice. As to the kind of experiment: Quantitative real-time RT-PCR of Nppa and Myl7 mRNA in hearts. Format: in vivo.
For series [5], the system named is Lmna^H222P/H222P mice. It is filed as in vivo. The note with it: for Amylase (serum): 6 weeks, mean ± standard error, n = 10.
Series [6] concerns Lmna^H222P/H222P mice. In words: Cardiac fibrosis score. Format: in vivo.
In series [7] the test system is ERK1/2 phosphorylation in HEK-293 cells. As to the kind of experiment: Phosphorylated ERK1/2 immunoblot in cultured HEK-293 cells. It is filed as cell-based. The note with it: 1 µM to 0.001 µM, 24 h. A general note: In western blotting, separated proteins are transferred to a membrane and probed.
The subject of series [8] is Lmna^H222P/H222P mice. In words: Serum creatine phosphokinase activity. Format: in vivo.
Series [9] concerns Lmna^H222P/H222P mice. In words: Histology of quadriceps muscle. The note with it: placebo 3 of 6. Format: in vivo.
In another series the test system is HT-29 cells. In words: Anti-proliferative activity on HT-29 cells. It is filed as cell-based. The note with it: HT-29 anti-proliferative IC50.

Structures are written as SMILES. “Also recorded” adds a separate entry of the source. Where two headings read alike, the source gives them in different places.

As for `COc1cccc(-c2cc(=O)c3ccccc3o2)c1N` [PD98059], the “effect on left ventricular and skeletal muscle function and survival” value in the series on Lmna^H222P/H222P mice [1] was “beneficial effect on left ventricular and skeletal muscle function and prolongs survivial”.

With `O=S1(=O)Nc2c(cc(F)c(F)c2Nc2ccc(I)cc2F)OCC(O)C(O)CC12CC2` (stereo not drawn) [compound 8], the “phosphorylated ERK1/2 relative to total ERK1/2 in heart” value in the series with ERK1/2 phosphorylation (3 mg/kg/day oral gavage) and in the series on ERK1/2 phosphorylation (6 mg/kg/day oral gavage) was “significant decreases” in each case. In addition, the “phosphorylated ERK1/2 relative to total ERK1/2 in liver” value in the series with ERK1/2 phosphorylation (3 mg/kg/day oral gavage) and in the series on ERK1/2 phosphorylation (6 mg/kg/day oral gavage) was “significant decreases” in each case. For the same molecule, the “phosphorylated ERK1/2 relative to total ERK1/2 in quadriceps muscle” value in the series on ERK1/2 phosphorylation (3 mg/kg/day oral gavage) was “only the higher dose produced a significant decrease”; in the series on ERK1/2 phosphorylation (6 mg/kg/day oral gavage), “significant decrease”. Moreover, the “forelimb grip fatigue index compared to placebo” value in the series with Lmna^H222P/H222P mice [2] is “significantly reduced”. Moreover, the “Kidney histology, individual sample” value with Lmna^H222P/H222P mice [3] (3 mg/kg/day) is “Normal”; in the series on Lmna^H222P/H222P mice [3] (6 mg/kg/day), “Some lymphocytic inflammation around the renal pelvis (around the ureter) and occasional medium-sized arteries; more inflammation than 7623 and 7622; also recorded: Mostly normal but some mild lymphocytic inflammation around small arteries with occasional hemosiderin-laden macrophages”. The “Liver histology, individual sample” value was “Normal; also recorded: Slightly greater vacuolation in some zones; similar to 7606 but milder; could be preparation artifact” in the series on Lmna^H222P/H222P mice [3] (3 mg/kg/day) and “Occasional hemosiderin laden macrophages. Some portal triads have mild lymphocytic inflammation; significance uncertain; also recorded: Normal; also recorded: Some intracellular vacuolation in some zones; similar to 7612; could be preparation artifact” in the series with Lmna^H222P/H222P mice [3] (6 mg/kg/day). For the same molecule, the “Spleen histology, individual sample” value was “Mildly increased number of hemosiderin-laden macrophages suggestive of old hemorrhage Somewhere; also recorded: Normal (hemosiderin-laden macrophages present but at approximately normal levels)” with Lmna^H222P/H222P mice [3] (3 mg/kg/day) and “Area of necrosis consistent with splenic infarct; moderately increased number of hemosiderin-laden macrophages suggestive of hemorrhage old somewhere; also recorded: Normal” in the series on Lmna^H222P/H222P mice [3] (6 mg/kg/day). Besides, in the series on Lmna^H222P/H222P mice [3] (3 or 6 mg/kg/day), the “liver, kidney or spleen histopathology, overall” value is “no consistent or specific abnormalities in liver, kidney or spleen histopathology”. The “cardiac Nppa mRNA compared to placebo” value in the series on Lmna^H222P/H222P mice [4] (3 mg/kg/day) and in the series on Lmna^H222P/H222P mice [4] (6 mg/kg/day) was “significantly reduced” in each case. Further, the “cardiac Myl7 mRNA compared to placebo” value with Lmna^H222P/H222P mice [4] (6 mg/kg/day) is on record as “significantly decreased”. Moreover, the “Amylase (serum)” value in the series on Lmna^H222P/H222P mice [5] (3 mg/kg/day) was 1,372 ± 282.9 U/L; in the series on Lmna^H222P/H222P mice [5] (6 mg/kg/day), 1,086 ± 40.18 U/L. Further, in the series on Lmna^H222P/H222P mice [5] (6 weeks of treatment at a dose up to 6 mg/kg/day), the “liver, kidney or pancreatic toxicity by serum chemistry” value was “did not produce significant liver, kidney or pancreatic toxicity”. The “cardiac fibrosis score (grade 0-4) compared to placebo” value with Lmna^H222P/H222P mice [6] (3 mg/kg/day) and in the series with Lmna^H222P/H222P mice [6] (6 mg/kg/day) was “statistically significant decreases in fibrosis” in each case. For the same molecule, the ERK1/2 phosphorylation entry in series [7] is on record as “essentially abolished ERK1/2 phosphorylation”. The “serum creatine phosphokinase activity compared to placebo” value was “but not 3 mg/kg/day of 8 significantly reduced” in the series with Lmna^H222P/H222P mice [8] (3 mg/kg/day) and “significantly reduced” in the series with Lmna^H222P/H222P mice [8] (6 mg/kg/day). In addition, the figures for the “quadriceps samples with internally nucleated fibers” value in the series with Lmna^H222P/H222P mice [9] (3 mg/kg/day) and in the series on Lmna^H222P/H222P mice [9] (6 mg/kg/day) were 1 of 5 and 0 of 5, respectively. The “potency of fast moving isomer compared to the slow moving one” value with HT-29 cells is on record as “approximately 25 fold”.

With `Cn1cnc2c(F)c(Nc3ccc(Br)cc3Cl)c(C(=O)NOCCO)cc21` [selumetinib], the “effect on left ventricular and skeletal muscle function and survival” value in the series on Lmna^H222P/H222P mice [1] was “beneficial effect on left ventricular and skeletal muscle function and prolongs survivial”.
